Earlier results on 1 substance are cited in patent publication EP0811056B1, “PEPTIDES FOR TISSUE AND CELL CULTURE MEDIA” (QUEST INTERNATIONAL B.V., priority 1995, dated 1996).

For this series the following is noted: on a glutamine basis.

Consider Glycyl-L-glutamine, for which the “amount of the dipeptide needed compared with free glutamine to obtain the same result” value is recorded as “up to 6 times”.
